From patent US20160318892A1, “PRODRUG COMPOUNDS” (PROXIMAGEN LIMITED, priority 2013, published 2016)
Converted amounts (≈) assume the structure as drawn. Where two headings read alike, the source gives them in different places. Blank lines part the entries; values can stand above or below the molecule they belong to.

How the values were obtained:
[1] = Solubility in aqueous solutions; format: physicochemical; conditions: aqueous solution
From the text: In an embodiment prodrugs of the present invention are suitable for oral administration. The skilled person understands that the pH of the gastrointestinal tract changes along its length. For example, the stomach has a pH of around pH 1.5 and the GI tract after the stomach has a pH of around 5 to 7.5. For more detail see, for example, Measurement of gastrointestinal pH profiles in normal ambulant human subjects, Gut. 1988 August; 29(8): 1035-1041. Improved solubility is expected to result in improved absorption, and therefore improved oral bioavailability. Thus improved solubility at any pH value between around pH 1.5 to 8 is expected to improve oral bioavailability. Compounds of the invention were assessed for solubility in aqueous solutions having a pH of from 2 to 10. In an embodiment prodrugs of the invention have a solubility of >0.5 mg/mL in an aqueous solution having a pH of from 2 to 8. In an embodiment prodrugs have a solubility of >5.0 mg/mL, or >10.0 mg/mL, >100.0 mg/mL, or >200.0 mg/mL. In an embodiment the prodrugs have the aforementioned aqueous solubility at a pH within the range of from 4 to 8, or from 6 to 8.
In an embodiment prodrugs of the invention are administered intravenously. High prodrug solubility is advantageous in order to reduce the volume of solution administered to the patient, and to reduce the risk of damage to the circulatory system. Solubility of >10 mg/mL is preferred. Yet more preferred is solubility of >30 mg/mL or >100.0 mg/mL. Yet more preferred is solubility of >200.0 mg/mL. The solubility is measured in an aqueous solution having a pH of from 2 to 10, which pH range is advantageous for intravenous prodrug delivery. See, for example, A guide on intravenous drug compatibilities based on their pH, Nasser S C et al./Pharmacie Globale (IJCP) 2010, 5 (01)). In an embodiment the prodrugs of the claimed invention have solubility of >10 mg/mL in an aqueous solution having a pH of from 2 to 10.

[2] = system: unique stereo-selective site in human brain; conditions: cited from earlier work
[3] = system: high K+ evoked CSD; conditions: rats; cited from earlier work
[4] = system: unique stereo-selective site in rat brain; conditions: cited from earlier work
[5] = system: high K+ evoked CSD; conditions: cats; cited from earlier work

Compound: CC(=O)c1ccc2c(c1)[C@H](NC(=O)c1ccc(F)cc1)[C@@H](OC(=O)[C@@H](NC(=O)[C@@H](N)C(C)C)C(C)C)C(C)(C)O2.Cl [Example 4, (3R,4S)-6-Acetyl-4-[(4-fluorobenzene)amido]-2,2-dimethyl-3,4-dihydro-2H-1-benzopyran-3-yl (2S)-2-[(2S)-2-amino-3-methylbutanamido]-3-methylbutanoate hydrochloride]
- solubility ([1]; pH 4.2, aqueous buffer): > 10000 µg/mL

Compound: CC(=O)c1ccc2c(c1)[C@H](NC(=O)c1ccc(F)cc1)[C@@H](OC(=O)[C@@H](N)C(C)C)C(C)(C)O2.Cl [Example 3, (3R,4S)-6-Acetyl-4-[(4-fluorobenzene)amido]-2,2-dimethyl-3,4-dihydro-2H-1-benzopyran-3-yl (2S)-2-amino-3-methylbutanoate hydrochloride]
- solubility ([1]; pH 3.6, aqueous buffer): < 1000 µg/mL

Compound: CC(=O)c1ccc2c(c1)[C@H](NC(=O)c1ccc(F)cc1)[C@@H](OC(=O)CN)C(C)(C)O2.Cl [Example 5, (3R,4S)-6-Acetyl-4-[(4-fluorobenzene)amido]-2,2-dimethyl-3,4-dihydro-2H-1-benzopyran-3-yl 2-aminoacetate hydrochloride]
- solubility ([1]; pH 5.1, aqueous buffer): > 5000 µg/mL

Compound: CC(=O)c1ccc2c(c1)[C@H](NC(=O)c1ccc(F)cc1)[C@@H](OC(=O)CNC(=O)[C@@H]1CCCN1)C(C)(C)O2.Cl [Example 6, (3R,4S)-6-Acetyl-4-[(4-fluorobenzene)amido]-2,2-dimethyl-3,4-dihydro-2H-1-benzopyran-3-yl 2-[(2S)-pyrrolidin-2-ylformamido]acetate hydrochloride]
- solubility ([1]; pH 6.1, aqueous buffer): > 10000 µg/mL

Compound: CC(=O)c1ccc2c(c1)[C@H](NC(=O)c1ccc(F)c(Cl)c1)[C@H](O)C(C)(C)O2 [Tonabersat]
- binding affinity to unique stereo-selective site [2]: high affinity
- inhibition of high K+ evoked CSD [3]: inhibits
- binding affinity to unique stereo-selective site [4]: high affinity
- inhibition of high K+ evoked CSD [5]: inhibits

Continued, values first:

- solubility ([1]; aqueous buffer, pH 4.0): > 10000 µg/mL
Compound: CC(=O)c1ccc2c(c1)[C@H](NC(=O)c1ccc(F)cc1)[C@@H](OCOP(=O)([O-])O)C(C)(C)O2.[Na+] [Example 2, Sodium {[(3R,4S)-6-Acetyl-4-[(4-fluorobenzene)amido]-2,2-dimethyl-3,4-dihydro-2H-1-benzopyran-3-yl]oxy}methyl hydrogen phosphate]

- solubility ([1]; pH 3.5, aqueous buffer): < 1000 µg/mL
Compound: CC(=O)c1ccc2c(c1)[C@H](NC(=O)c1ccc(F)cc1)[C@@H](OC(=O)CNC(C)C)C(C)(C)O2.Cl [Example 7, (3R,4S)-6-Acetyl-4-[(4-fluorobenzene)amido]-2,2-dimethyl-3,4-dihydro-2H-1-benzopyran-3-yl 2-[(propan-2-yl)amino]acetate hydrochloride]

- solubility ([1]; aqueous buffer, pH 7.0): ~10000 µg/mL (≈ 22.9 mM)
Compound: CC(=O)c1ccc2c(c1)[C@H](NC(=O)c1ccc(F)cc1)[C@@H](OP(=O)(O)O)C(C)(C)O2 [Example 1, {[(3R,4S)-6-Acetyl-4-[(4-fluorobenzene)amido]-2,2-dimethyl-3,4-dihydro-2H-1-benzopyran-3-yl]oxy}phosphonic acid]

- solubility ([1]; aqueous buffer, pH 4.0): ~10000 µg/mL
Compound: CC(=O)c1ccc2c(c1)[C@H](NC(=O)c1ccc(F)cc1)[C@@H](OC(=O)OCCN1CCOCC1)C(C)(C)O2.Cl [Example 8, (3R,4S)-6-Acetyl-4-[(4-fluorobenzene)amido]-2,2-dimethyl-3,4-dihydro-2H-1-benzopyran-3-yl 2-(morpholin-4-yl)ethyl carbonate hydrochloride]
